Test results: patent US10138261B2, “Ferrocenyl compounds” (The University of Birmingham, priority 2013, dated 2018)
Read-outs that look alike come from different tables or passages of the source.

What was measured:
[1] = tested on: human cervix carcinoma cells (Hela); experiment: proliferation activity assay, HeLa cells; assay type: cell-based; conditions: read-out: IC50 (50% inhibitory concentration) HeLa
[2] = tested on: non-cancerous human T-lymphocyte cells (CEM); experiment: proliferation activity assay, CEM cells; assay type: cell-based; conditions: read-out: IC50 (50% inhibitory concentration) CEM
[3] = tested on: oesophageal cancer cell lines OE 19 and OE 33
[4] = tested on: murine leukemia cells (L1210); experiment: proliferation activity assay, L1210 cells; assay type: cell-based; conditions: read-out: IC50 (50% inhibitory concentration) L1210
[5] = tested on: Vesicular stomatitis virus; experiment: microbe, parasite or virus in culture; assay type: cell-based; conditions: read-out: EC50 (required to reduce virus-induced cytopathogenicity by 50%) Vesicular stomatitis virus
[6] = tested on: Herpes simplex virus-1 TK^− KOS ACV^r; experiment: microbe, parasite or virus in culture; assay type: cell-based; conditions: read-out: EC50 (required to reduce virus-induced cytopathogenicity by 50%) Herpes simplex virus-1 TK^− KOS ACV^r
Vaccinia virus = experiment: microbe, parasite or virus in culture; assay type: cell-based; conditions: read-out: EC50 (required to reduce virus-induced cytopathogenicity by 50%) Vaccinia virus
Hela cells = experiment: minimum cytotoxic concentration in antiviral assay host cells (Table 2)
[7] = tested on: Herpes simplex virus-1 (KOS); experiment: microbe, parasite or virus in culture; conditions: Human alphaherpesvirus 1, HeLa, read-out: EC50 (required to reduce virus-induced cytopathogenicity by 50%) Herpes simplex virus-1 (KOS)
[8] = tested on: Herpes simplex virus-2 (G); experiment: microbe, parasite or virus in culture; conditions: Human alphaherpesvirus 2, HeLa, read-out: EC50 (required to reduce virus-induced cytopathogenicity by 50%) Herpes simplex virus-2 (G)
[9] = tested on: Herpes simplex virus-2 (G); conditions: read-out: EC50 (required to reduce virus-induced cytopathogenicity by 50%) Herpes simplex virus-2 (G); Hela cells
[10] = tested on: cells lacking (TK negative) or possessing (TK positive) the phosphorylation enzyme; conditions: cell death curves, FIG. 3
[11] = tested on: Herpes simplex virus-1 (KOS); conditions: read-out: EC50 (required to reduce virus-induced cytopathogenicity by 50%) Herpes simplex virus-1 (KOS); Hela cells
[12] = even at higher concentrations of 25 μM
[13] = Vesicular stomatitis virus, HeLa

Row | Compound | IC50 [1] [µM] | IC50 [2] [µM] | inhibition of cell growth [3, 12] | IC50 [4] [µM] | EC50 [5, 13] [µM] | EC50 ([6]; Human alphaherpesvirus 1, HeLa) [µM] | EC50 (Vaccinia virus; Orthopoxvirus vaccinia, HeLa) [µM] | other results
1 | 1-(Thyminyl-)ethyl-ferrocene [Compound 4] | 509 | 592 | ineffective at inhibiting cell growth | 417 |  |  |  | 
2 | 1-[2-(Adenin-9-yl)ethyl]-ferrocene [Compound 5] |  |  | ineffective at inhibiting cell growth |  |  |  |  | 
3 | 1-[α-Methyl-(3-(hydroxy)propyl)]ferrocene [Compound 3] | 45.2 | 38.7 | ineffective at inhibiting cell growth | 12.3 |  |  |  | 
4 | Nc1nc2c(ncn2COCCO)c(=O)[nH]1 [Acyclovir] |  |  |  |  | > 250 | 50 | > 250 | 
5 | O=c1[nH]c(=O)n([C@H]2C[C@H](O)[C@@H](CO)O2)cc1/C=C/Br [Brivudin] |  |  |  |  | > 250 | 50 | 10 | Minimum cytotoxic concentration (required to cause a microscopically detectable alteration of normal cell morphology) (Hela cells): >250 μM; EC50 [7]: 0.02 µM; EC50 [8]: 183 µM
6 | Nc1ccn(C[C@@H](CO)OCP(=O)(O)O)c(=O)n1 [Cidofovir] |  |  |  |  | > 250 | 0.9 | 17 | Minimum cytotoxic concentration (required to cause a microscopically detectable alteration of normal cell morphology) (Hela cells): >250 μM; EC50 [7]: 2 µM; EC50 [8]: 2 µM
7 | N.N.[Cl][Pt][Cl] [Cisplatin] | 1.2 | 0.9 |  | 1 |  |  |  | 
8 | Nc1nc(O)c2ncn(COC(CO)CO)c2n1 [Ganciclovir] |  |  |  |  | > 100 | 10 | > 100 | 
9 | (S,Rp)-1-[α-Methyl-(3-(hydroxy)propyl)]-2-[2-(-adenin-9-yl)ethyl]-ferrocene [Compound 2] |  |  |  |  |  |  |  | inhibition of cell growth ([3]; 6.25 μM, 4-day experiment): inhibited cell growth
10 | (S,Rp)-1-[α-Methyl-(3-(hydroxy)propyl)]-2-[(thyminyl)ethyl]-ferrocene [Compound 1] | 2.68 | 0.9 |  | 0.78 |  |  |  | inhibition of cell growth ([3]; 6.25 μM, 4-day experiment): inhibited cell growth; EC50 [5]: 48 µM; EC50 [9]: 2.4 µM; EC50 ([6]; Hela cells): 9.6 µM; cell survival, TK negative versus TK positive cells [10]: the cells lacking the phosphorylation enzyme (TK negative) survive more than the cells that possess the phosphorylation enzyme (TK positive); EC50 [11]: 2.4 µM; EC50 (Vaccinia virus): 21.6 µM
